Data from the supplement of paper PMC5908809.

Assays:
[1] = test system: normal NK cells expanded with K562-aAPC; assay: drug sensitivity score (DSS) (DSS units); higher = more sensitive; extreme values may be limits of the assay; conditions: 72 h; IL-2 2.5 ng/mL
Description: (§1)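 Drug sensitivity and resistance testing on K562-aAPC-expanded normal NK cells: 5 concentrations (10-fold steps over a 10,000-fold range), 72 h at 37 °C, viability by CellTiter-Glo normalised to DMSO and benzethonium chloride controls; DSS from the fitted curve.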

NK-YS (IL-2 2.5 ng/mL) [2] = assay: as above; conditions: 72 h
YT (IL-2 2.5 ng/mL) [3] = assay: as above; conditions: 72 h
KAI3 (IL-2 2.5 ng/mL) [4] = assay: as above; conditions: 72 h
NKL (IL-2 2.5 ng/mL) [5] = assay: as above; conditions: 72 h
[6] = test system: normal primary NK cells, pool 1 (3 donors) (IL-2 2.5 ng/mL); assay: as above; conditions: 72 h
DERL-7 (IL-2 2.5 ng/mL) [7] = assay: as above; conditions: 72 h
[8] = test system: normal primary NK cells, pool 3 (3 donors) (IL-2 2.5 ng/mL); assay: as above; conditions: 72 h
NK-92 (IL-2 2.5 ng/mL) [9] = assay: as above; conditions: 72 h
SNK-6 (IL-2 2.5 ng/mL) [10] = assay: as above; conditions: 72 h
[11] = test system: normal primary NK cells, pool 2 (3 donors) (IL-2 2.5 ng/mL); assay: as above; conditions: 72 h
[12] = test system: normal primary NK cells, pool 1 (3 donors), resting (IL-2 0 ng/mL); assay: as above; conditions: 72 h
KHYG-1 (IL-2 2.5 ng/mL) [13] = assay: as above; conditions: 72 h
IMC-1 (IL-2 20 ng/mL) [14] = assay: as above; conditions: 72 h
NK-YS (IL-2 2.5 ng/mL) [15] = assay: percent inhibition of viability; higher = more inhibition; conditions: 72 h
YT (IL-2 2.5 ng/mL) [16] = assay: as above; conditions: 72 h
KAI3 (IL-2 2.5 ng/mL) [17] = assay: as above; conditions: 72 h
NKL (IL-2 2.5 ng/mL) [18] = assay: as above; conditions: 72 h
[19] = test system: normal primary NK cells, pool 1 (3 donors) (IL-2 2.5 ng/mL); assay: as above; conditions: 72 h
DERL-7 (IL-2 2.5 ng/mL) [20] = assay: as above; conditions: 72 h
[21] = test system: normal primary NK cells, pool 3 (3 donors) (IL-2 2.5 ng/mL); assay: as above; conditions: 72 h
NK-92 (IL-2 2.5 ng/mL) [22] = assay: as above; conditions: 72 h
SNK-6 (IL-2 2.5 ng/mL) [23] = assay: as above; conditions: 72 h
[24] = test system: normal primary NK cells, pool 2 (3 donors) (IL-2 2.5 ng/mL); assay: as above; conditions: 72 h
[25] = test system: normal primary NK cells, pool 1 (3 donors), resting (IL-2 0 ng/mL); assay: as above; conditions: 72 h
KHYG-1 (IL-2 2.5 ng/mL) [26] = assay: as above; conditions: 72 h
IMC-1 (IL-2 20 ng/mL) [27] = assay: as above; conditions: 72 h
[28] = test system: normal NK cells expanded with K562-aAPC; assay: as above; conditions: 72 h, IL-2 2.5 ng/mL
Description: as §1

CO[C@H]1C[C@@H]2CC[C@@H](C)[C@@](O)(O2)C(=O)C(=O)N2CCCC[C@H]2C(=O)O[C@H]([C@H](C)C[C@@H]2CC[C@@H](OP(C)(C)=O)[C@H](OC)C2)CC(=O)[C@H](C)/C=C(\C)[C@@H](O)[C@@H](OC)C(=O)[C@H](C)C[C@H](C)/C=C/C=C/C=C/1C [Ridaforolimus] (max concentration tested 100 nM)
Conditions	drug sensitivity score
DERL-7 (IL-2 2.5 ng/mL) [7]	13.3
IMC-1 (IL-2 20 ng/mL) [14]	0
KAI3 (IL-2 2.5 ng/mL) [4]	12.4
KHYG-1 (IL-2 2.5 ng/mL) [13]	5.97
NK-92 (IL-2 2.5 ng/mL) [9]	3.73
NK-YS (IL-2 2.5 ng/mL) [2]	16
NKL (IL-2 2.5 ng/mL) [5]	19.2
SNK-6 (IL-2 2.5 ng/mL) [10]	15.6
YT (IL-2 2.5 ng/mL) [3]	11.2
[1]	1.24
[6]	3.96
[8]	0.06
[11]	2.58
[12]	9.48

percent inhibition of viability [%]
Conditions	0.01 nM	0.1 nM	1 nM	10 nM	100 nM
DERL-7 (IL-2 2.5 ng/mL) [20]	-15.4	2.83	28.9	51.2	57.3
IMC-1 (IL-2 20 ng/mL) [27]	-3.33	-2.56	-12.9	-45.3	-38.3
KAI3 (IL-2 2.5 ng/mL) [17]	-4.12	-7.54	27.9	44	48.8
KHYG-1 (IL-2 2.5 ng/mL) [26]	-5.83	-9.85	0.66	26.3	51.1
NK-92 (IL-2 2.5 ng/mL) [22]	-28.6	-5.36	-5.98	12.4	39
NK-YS (IL-2 2.5 ng/mL) [15]	-0.81	5.33	44.5	49.8	54.8
NKL (IL-2 2.5 ng/mL) [18]	-1.33	21.2	50.1	55	58.3
SNK-6 (IL-2 2.5 ng/mL) [23]	-5.16	-2.57	46.2	46	55
YT (IL-2 2.5 ng/mL) [16]	-4.71	-6.15	16.4	48.4	45.6
[19]	-8.79	8.41	13.3	20.3	11.8
[21]	-5.53	6.52	5.98	8.12	11
[24]	-12.7	6.23	9.36	16.1	19.1
[25]	-5.23	14.6	24.1	30.7	28.2
[28]	-10	-8.61	-0.94	10.6	16.8

Nc1nccc(-c2c(-c3ccc(F)cc3)ncn2C2CCCCC2)n1 (max concentration tested 10000 nM)
Conditions	drug sensitivity score
DERL-7 (IL-2 2.5 ng/mL) [7]	2.07
IMC-1 (IL-2 20 ng/mL) [14]	0
KAI3 (IL-2 2.5 ng/mL) [4]	25.2
KHYG-1 (IL-2 2.5 ng/mL) [13]	1.98
NK-92 (IL-2 2.5 ng/mL) [9]	6.29
NK-YS (IL-2 2.5 ng/mL) [2]	4.44
NKL (IL-2 2.5 ng/mL) [5]	0
SNK-6 (IL-2 2.5 ng/mL) [10]	4.81
YT (IL-2 2.5 ng/mL) [3]	3.49
[1]	0.68
[6]	3.09
[8]	1.17
[11]	4.42
[12]	2.37

percent inhibition of viability [%]
Conditions	1 nM	10 nM	100 nM	1000 nM	10000 nM
DERL-7 (IL-2 2.5 ng/mL) [20]	-3.56	-1.12	-1.49	5.28	29
IMC-1 (IL-2 20 ng/mL) [27]	0.25	1.14	3.57	3.69	3.74
KAI3 (IL-2 2.5 ng/mL) [17]	3.53	23.9	60.5	90.9	66.9
KHYG-1 (IL-2 2.5 ng/mL) [26]	4.98	-0.44	4.5	3.42	31.7
NK-92 (IL-2 2.5 ng/mL) [22]	4.97	-2.54	18.6	23.2	49.9
NK-YS (IL-2 2.5 ng/mL) [15]	-3.68	-2.41	3.69	14.9	47.6
NKL (IL-2 2.5 ng/mL) [18]	-2.84	0.96	7.22	-3.94	-2.33
SNK-6 (IL-2 2.5 ng/mL) [23]	-26.2	-7.24	-4.71	7.8	64.1
YT (IL-2 2.5 ng/mL) [16]	4.57	3.69	9.54	15.5	35.5
[19]	-3.43	-7.84	9.95	16.4	17.9
[21]	-7.45	-3.42	2.49	11.6	17
[24]	-8.96	-5.75	14	14.7	21.2
[25]	-19.6	-29.4	3.3	5.1	33.2
[28]	-4.54	-4.14	0.36	-0.71	21.9
